Assay results reported in PMC4305368, “Influence of Dimerization of Lipopeptide Laur-Orn-Orn-Cys–NH2 and an N-terminal Peptide of Human Lactoferricin on Biological Activity” (International Journal of Peptide Research and Therapeutics, 2014).
Read-outs that look alike come from different tables or passages of the source. Bridge positions count the residues as written; N and C are the ends. Square brackets hold non-standard residues; d marks the D form. Ends that are not written are not given here. Peptide text beside a SMILES is read from it. I, II: the chains in the order shown. * marks the point of attachment. X1 = CCCCCCCCCCCC(=O)N[C@@H](CCCN)C(=O)N[C@@H](CCCN)C(=O)N[C@@H](CS*)C(N)=O; Lauroyl = CCCCCCCCCCCC(=O)*; Orn = NCCC[C@H](N)C(=O)O

How the values were obtained:
E. coli ATCC 8739 = assay type: cell-based, Escherichia coli
Experimental: (§1) The reference strains were supplied by the Polish Collection of Microorganisms (Polish Academy of Sciences, Institute of Immunology and Experimental Therapy, Wroclaw, Poland). Minimal inhibitory concentration (MIC) was determined by the microbroth dilution method outlined by the National Committee for Clinical Laboratory Standards ([2003]). The following microbial strains were tested: Gram-positive: Rhodococcus equi ATCC 6939, Staphylococcus epidermidis, S. aureus ATCC 6538, Streptococcus pyogenes and Enterococcus faecalis; Gram-negative: E. coli ATCC 8739, Pseudomonas aeruginosa and fungi: C. albicans ATCC10231. Bacteria were suspended in Mueller–Hinton II broth (Sigma-Aldrich) at initial inocula of 5 × 10^5 cfu (colony-forming units)/mL, while the Sabouraud 5 % dextrose broth of a pH of 7.4 (Sigma-Aldrich) was used for fungi (at initial inoculum of 5 × 10^3 cfu/mL). Microbial cells in polystyrene 96-well plates were exposed to the peptides at adequate concentrations (range 1–512 μg/mL) for 18 h at 37 °C (bacterial strains) or for 48 h at 25 °C (fungi). MIC was taken as the lowest drug concentration at which observable growth was inhibited. Experiments were performed in triplicate on three different days.

[1] = system: Staphylococcus epidermidis; assay type: cell-based
Experimental: as §1

Pseudomonas aeruginosa = assay type: cell-based
Experimental: as §1

Streptococcus pyogenes = assay type: cell-based
Experimental: as §1

Enterococcus faecalis = assay type: cell-based
Experimental: as §1

[2] = system: Rhodococcus equi ATCC 6939; assay type: cell-based
Experimental: as §1

C. albicans ATCC10231 = assay type: cell-based, Candida albicans
Experimental: as §1

S. aureus ATCC 6538 = assay type: cell-based, Staphylococcus aureus
Experimental: as §1

human red blood cells = experiment: Haemolysis assay; assay type: cell-based; conditions: human red blood cells 4 % [v/v] in PBS, 2 h at 37 °C, range 1-512 µg/mL, assessed visually; 1 % Triton positive control
Experimental: The haemolytic activity of the peptides was tested against human red blood cells, essentially as described previously (Kamysz et al. [2007]). Fresh human blood was collected into tubes containing EDTA as anticoagulant. Red blood cells were separated by centrifugation at 500×g for 12 min at room temperature and the plasma was aspirated. Erythrocytes were washed three times with PBS, separated by centrifugation (500×g, 12 min) and resuspended in PBS. Peptides I–V were serially diluted in PBS (range 1–512 μg/mL) and 50 μL was added to 50 μL of the erythrocyte suspension. The final concentration of red blood cells was 4 % [v/v]. The results were assessed visually after incubation for 2 h at 37 °C. As a positive control, 1 % Triton was used, whereas PBS served as a negative control.

Row | Antimicrobial activity (MIC) (E. coli ATCC 8739; ATCC 8739, 18 h) [µg/mL] | Antimicrobial activity (MIC) ([1]; 18 h) [µg/mL] | Antimicrobial activity (MIC) (Pseudomonas aeruginosa; 18 h) [µg/mL] | Antimicrobial activity (MIC) (Streptococcus pyogenes; 18 h) [µg/mL] | Antimicrobial activity (MIC) (Enterococcus faecalis; 18 h) [µg/mL] | Antimicrobial activity (MIC) ([2]; ATCC 6939, 18 h) [µg/mL] | Antimicrobial activity (MIC) (C. albicans ATCC10231; ATCC10231, 48 h, pH 7.4) [µg/mL] | Antimicrobial activity (MIC) (S. aureus ATCC 6538; ATCC 6538, 18 h) [µg/mL] | Molecule | Antimicrobial activity (MIC) (E. coli ATCC 8739; Escherichia coli, Mueller-Hinton II broth, 5 × 10^5 cfu/mL, 18 h at 37 °C, range 1-512 µg/mL, triplicate on three different days) [µg/mL] | Antimicrobial activity (MIC) ([1]; Staphylococcus epidermidis, Mueller-Hinton II broth, 5 × 10^5 cfu/mL, 18 h at 37 °C, range 1-512 µg/mL, triplicate on three different days) [µg/mL] | Antimicrobial activity (MIC) (Pseudomonas aeruginosa; Pseudomonas aeruginosa, Mueller-Hinton II broth, 5 × 10^5 cfu/mL, 18 h at 37 °C, range 1-512 µg/mL, triplicate on three different days) [µg/mL] | Antimicrobial activity (MIC) (Streptococcus pyogenes; Streptococcus pyogenes, Mueller-Hinton II broth, 5 × 10^5 cfu/mL, 18 h at 37 °C, range 1-512 µg/mL, triplicate on three different days) [µg/mL] | Antimicrobial activity (MIC) (Enterococcus faecalis; Enterococcus faecalis, Mueller-Hinton II broth, 5 × 10^5 cfu/mL, 18 h at 37 °C, range 1-512 µg/mL, triplicate on three different days) [µg/mL] | Antimicrobial activity (MIC) ([2]; Rhodococcus equi, Mueller-Hinton II broth, 5 × 10^5 cfu/mL, 18 h at 37 °C, range 1-512 µg/mL, triplicate on three different days) [µg/mL] | Antimicrobial activity (MIC) (C. albicans ATCC10231; Candida albicans, Sabouraud 5 % dextrose broth pH 7.4, 5 × 10^3 cfu/mL, 48 h at 25 °C, range 1-512 µg/mL, triplicate on three different days) [µg/mL] | Haemolytic activity (human red blood cells) [µg/mL] | Antimicrobial activity (MIC) (S. aureus ATCC 6538; Staphylococcus aureus, Mueller-Hinton II broth, 5 × 10^5 cfu/mL, 18 h at 37 °C, range 1-512 µg/mL, triplicate on three different days) [µg/mL]
1 | 8 | 2 | 4 | 2 | 4 | 1 | >512 | 2 | CCCCCCCCCCCC(=O)N[C@@H](CCCN)C(=O)N[C@@H](CCCN)C(=O)N[C@@H](CSSC[C@H](NC(=O)[C@H](CCCN)NC(=O)[C@H](CCCN)NC(=O)CCCCCCCCCCC)C(N)=O)C(N)=O [Peptide IV] (I: Lauroyl-[Orn]-[Orn]-Cys-NH2 / II: Lauroyl-[Orn]-[Orn]-Cys-NH2; disulfide I:3-II:3) | – | – | – | – | – | – | – | – | –
2 | 128 | 1 | 8 | 2 | 32 | 2 | >512 | 4 | CCCCCCCCCCCC(=O)N[C@@H](CCCN)C(=O)N[C@@H](CCCN)C(=O)N[C@@H](CSSC[C@H](NC(=O)[C@H](Cc1c[nH]c2ccccc12)NC(=O)[C@H](CCC(N)=O)NC(=O)[C@@H](NC(=O)[C@H](CO)NC(=O)[C@H](CCCNC(=N)N)NC(=O)[C@H](CCCNC(=N)N)NC(=O)[C@H](CCCNC(=N)N)NC(=O)[C@H](CCCNC(=N)N)NC(=O)CN)C(C)C)C(=O)N[C@@H](C)C(N)=O)C(N)=O [Peptide V] (H-GRRRRSVQWC(X1)A-NH2; N-terminus assumed) | – | – | – | – | – | – | – | – | –
3 | 8 | 2 | 8 | 4 | 2 | 2 | 128 | 2 | CCCCCCCCCCCC(=O)N[C@@H](CCCN)C(=O)N[C@@H](CCCN)C(=O)N[C@@H](CS)C(N)=O [Peptide III, Laur-Orn-Orn-Cys–NH2] (Lauroyl-[Orn]-[Orn]-Cys-NH2) | – | – | – | – | – | – | – | – | –
4 | – | – | – | – | – | – | – | – | GRRRRSVQWCA-NH2 [Peptide I, hLF(1–11)–NH2] | 512 | 2 | 32 | 2 | 256 | 16 | 128 | >512 | 64
